Key:
Type in all cases: cell-based, Pseudomonas aeruginosa
[1] = test system: nonswarming P. aeruginosa mutant rhlA; experiment: Swarming motility of nonswarming rhlA mutant on soft agar (reactivation / agonist assay); conditions: for Swarming motility of rhlA mutant: 85 μM in soft agar (0.5%); for Reactivation of swarming motility of rhlA mutant: concentration not given; for Concentration of activity reversal for swarming promotion of rhlA mutant (transition concentration): soft agar
Excerpt: Using nonswarming mutant to screen for swarming agonists and wild type P. aeruginosa for swarming antagonists. The transposon mutant, rhlA (genotype, rhlA-E08:ISphoA/hah)39 of P. aeruginosa (PAO1), that impairs the gene that is responsible for synthesizing rhamnolipids is completely incapable of a swarming motility. […] Based on this inference, a rhlA mutant was used in a swarming experiment to screen the saccharide-hydrocarbons for agonists that can reactivate the swarming motility of rhlA.
(§1) Swarm agar plates were based on M8 medium supplemented with 0.2% glucose, 0.5% casamino acid, 1 mM MgSO4 and […]. 17 For each set of experiment all the swarm plates were poured from same batch of agar and allowed to dry for 1 h before inoculation of bacteria. Bacterial culture (3 μl) (wild type PAO1 or rhlA mutant) with OD600 between […] was inoculated on the solidified agar plates. Swarm agar plates were incubated at 37° C. for 12 h and then incubated for additional 12 h at room temp. Chronological images of swarm plates were taken using a camera. To measure swarming area, sizes of the petridish in all swarming images were adjusted to a pre-assigned diameter and images were printed on copying paper (Xerox-business 4200). Weight of a 1 cm^2 copy paper square was roughly ˜8.0 mg. swarming images on the copy paper were cut and weighed, the swarm area was calculated by dividing the weight of image by weight of 1 cm^2 square (8 mg).
(§2) Swarm agar plates were made using M8 medium supplemented with 0.2% glucose, 0.5% casamino acid, 1 mM MgSO4 and solidified with 0.5% Bacto agar. 24 Bacterial culture with OD600 between 0.4 to 0.6 was inoculated as 3 μl aliquots. Swarm agar plates were incubated at 37° C. for 12 h and then incubated for additional 12 h at rt. For each set of experiment all the swarm plates were poured from same batch of agar and allowed to dry for 1 h before inoculation of bacteria.

[2] = test system: wild type PAO1; experiment: Swarming motility of wild type PAO1 on soft agar (antagonist assay); conditions: for Swarming motility of wild type PAO1: 85 μM in soft agar; for Effect on PAO1 swarming: concentration not given; for Concentration of activity reversal for swarming inhibition of PAO1 (transition concentration): soft agar
Experimental: In contrast, the wild type P. aeruginosa produces the rhamnolipids and is capable of swarming on soft agar gel (˜0.5% agar). […] We note that saccharide hydrocarbons may also promote the swarming motility, but such promotions are less unambiguous than the inhibition for wild type PAO1. Such promotion will be unambiguous in the agonist assay using the nonswarming mutant rhlA.
as §1, §2

[3] = test system: PAO1 biofilm; experiment: Crystal violet based static biofilm inhibition assay, DSHs in LB media (Examples 2 and 4); conditions: for Inhibition of PAO1 biofilm formation (surface attached): 160 μM, 24 h, LB media, 160 µM; for Anti-biofilm activity (biofilm inhibition): concentration not given
Experimental: The ability of DSHs was tested to inhibit Pseudomonas aeruginosa adhesion, biofilm and to disperse pre-formed biofilm. To quantify the amount of PAO1/EGFP attached on the surface of micro titer plates with or without the synthesized DSHs, fluorescence emitted by green fluorescent proteins (GFP) was quantified (see supporting info for details). Crystal violet (CV) based static biofilm assay (see supporting info) was used to screen the anti-biofilm potencies of all synthesized agents. Both surface attached (SA) (FIG. 17) and total (SA+air-liquid interface) biofilm of P. aeruginosa was quantified. […] CV assays were also used to quantify the amount of P. aeruginosa biofilm remaining after dispersion experiments (FIG. 19). Initially, all agents were screen for anti-biofilm activities (both inhibition and dispersion) at 160 μM. […] All reported biofilm inhibition results are an average of 4 identical wells.
The effect that DSHs have on the adhesion of PAO1-EGFP on polystyrene surface (microtiter plate) was also examined. PAO1-EGFP is a P. aeruginosa strain that constitutively expresses green fluorescent protein. In the adhesion assays, PAO1-EGFP was grown in microtiter plate for 24-hours in LB-media with (160 μM) or without DSHs. After 24-hours, the fluorescent signal obtained from surface adhered PAO1-EGFP was measured. Percent reduction in fluorescence was calculated by comparing fluorescent signal from PAO1-EGFP grown in LB-media with the signal from wells that had DSHs (FIG. 29A). To study the effect of DSHs on biofilm formation, Pseudomonas aeruginosa (PAO1) was grown in LB-media with (160 μM) or without DSHs at 37° C. under static conditions within wells of microtiter plates. After 24 hours, the surface attached biofilms adhering to the bottom of the wells were stained with crystal-violet dye and the biofilm was quantified by measuring absorbance at 600 nm (OD600). […] Similar to inhibition, the surface attached biofilm after dispersion with DSHs was quantified with crystal-violet staining and absorbance measurement at 600 nm, except that for dispersion, biofilm was first grown for 1 day in just LB-media without any DSHs after which DSHs were added and plates were incubated for additional 24 hours followed by quantification (FIG. 29B).
Crystal violet (CV) based-biofilm inhibition assay. Inhibitory effect of all synthesized disaccharide hydrocarbons on biofilm formation of Pseudomonas aeruginosa (wild type PAO1) was determined by static biofilm inhibition assay using crystal violet staining. Overnight culture of PAO1 were sub cultured in LB media to OD600 of 0.01 and further the OD600 was allowed to reach ˜0.1. The bacterial sub-culture (200 μL) was then added into the wells of a microtiter plate. Predetermined concentrations of DSHs were added to respective wells containing sub culture by pipetting out fixed volume of sterile aqueous stock solutions (except DβL (7), SPOT, (15) and 2-ODαC (17), which were introduced as stocks prepared in H2O […] and EtOH (90:10) solutions). The microtiter plates were then wrapped in GLAD Press n′ Seal® (saran wrap) and further incubated under stationary conditions for 24 h at 37° C. After 24 h incubation, the culture media was discarded by pipetting carefully (without disrupting biofilm), the plate was then washed once with sterile water (200 μL) and allowed to dry at 37° C. for ˜30 mins. Microtiter plates were then stained with 0.1% aqueous solution of crystal violet (CV) (200 μL) at rt for ˜30 mins. Following this, the CV stain was removed and plate was again washed with sterile water (200 μL). Resultant CV stain in the well was then solubilized by adding 100 μL of 30% AcOH solution (in water) and mixing gently by pipetting.

Row | Compound | Swarming motility of rhlA mutant ([1]; 24 h) | Swarming motility of wild type PAO1 ([2]; 24 h) | Effect on PAO1 swarming [2] | Anti-biofilm activity (biofilm inhibition) [3] | other results
1 | CCCCCCCCCCC(CO[C@@H]1O[C@H](CO)[C@@H](O[C@H]2O[C@H](CO)[C@@H](O)[C@H](O)[C@H]2O)[C@H](O)[C@H]1O)Cc1cc(C)cc(C)c1 (stereo partly drawn) [3,5-DMBDβM, 3,5-dimethyl benzyl dodecyl β-maltoside] | long, straight and well-defined tendrils |  |  |  | 
2 | CCCCCCCCCCC(CO[C@@H]1O[C@H](CO)[C@@H](O[C@H]2O[C@H](CO)[C@@H](O)[C@H](O)[C@H]2O)[C@H](O)[C@H]1O)Cc1ccc(C)cc1 (stereo partly drawn) [4-MBDβM, 4-methyl benzyl dodecyl β-maltoside] | long, straight and well-defined tendrils |  |  |  | 
3 | CCCCCCCCC(CO[C@@H]1O[C@H](CO)[C@@H](O[C@H]2O[C@H](CO)[C@@H](O)[C@H](O)[C@H]2O)[C@H](O)[C@H]1O)Cc1ccc(C(C)(C)C)cc1 (stereo partly drawn) [4-tBuBDeβM, 4-tertiary butyl benzyl decyl β-maltoside] | swarming motility with without well-defined tendrils |  |  |  | 
4 | CCCCCCCCCCO[C@@H]1O[C@H](CO)[C@@H](O[C@H]2O[C@H](CO)[C@@H](O)[C@H](O)[C@H]2O)[C@H](O)[C@H]1O [DeβM, decyl β-matoside] | did not exhibit any significant activation of swarming |  |  |  | 
5 | CCCCCCCCCCCCO[C@H]1O[C@H](CO)[C@@H](O[C@@H]2O[C@H](CO)[C@@H](O)[C@H](O)[C@H]2O)[C@H](O)[C@H]1O [DαC (6), dodecyl-α-cellobioside] | no apparent reactivation of rhlA swarming | causing significant amount of tendril formation | induced tendril formation in the swarming pattern of PAO1 |  | 
6 | CCCCCCCCCCCCO[C@@H]1O[C@H](CO)[C@@H](O)[C@H](O)[C@H]1O [DβG (8), dodecyl-β-glucoside] | no apparent effect on rhlA | inhibited the swarming motility of wild type PAO1 |  | weak anti-biofilm activity | Inhibition of PAO1 biofilm formation (surface attached) ([3]; listed as 8: DβG): poor anti-biofilm activity; Anti-biofilm activity (biofilm inhibition) ([3]; listed as DOG (8)): did not show significant inhibition of PAO1 biofilm; Reactivation of swarming motility of rhlA mutant [1]: activated the swarming motility of rhlA mutant; Concentration of activity reversal for swarming promotion of rhlA mutant (transition concentration) [1]: ~35 to 50 µM; Concentration of activity reversal for swarming promotion of rhlA mutant (transition concentration) ([1]; listed as 8): 35 µM; Concentration of activity reversal for swarming inhibition of PAO1 (transition concentration) [2]: ~50 to 60 µM; Concentration of activity reversal for swarming inhibition of PAO1 (transition concentration) ([2]; listed as 8): 35 to 50 µM
7 | CCCCCCCCCCCCO[C@@H]1O[C@H](CO)[C@@H](O[C@H]2O[C@H](CO)[C@@H](O)[C@H](O)[C@H]2O)[C@H](O)[C@H]1O [DβM (1), dodecyl-β-maltoside] | strong reactivation of the swarming motility in rhlA mutant | causing significant amount of tendril formation | induced tendril formation in the swarming pattern of PAO1 |  | Inhibition of PAO1 biofilm formation (surface attached) ([3]; listed as 1: DβM): 50%; Swarming motility of rhlA mutant ([1]; 24 h, listed as DβM): long, straight and well-defined tendrils; Swarming reactivation of rhlA mutant ([1]; 110 μM in soft agar, 24 h): fully restored the swarming of rhlA; Swarming of wild type PAO1 ([2]; 110 μM in soft agar, 24 h): did not significantly affect the swarm pattern
8 | CCCCCCCCCCCCCO[C@@H]1O[C@H](CO)[C@@H](O[C@@H]2O[C@H](CO)[C@@H](O)[C@H](O)[C@H]2O)[C@H](O)[C@H]1O [TβC (5), tridecyl-β-cellobioside] | no apparent reactivation of rhlA swarming | causing significant amount of tendril formation | induced tendril formation in the swarming pattern of PAO1 | did not show significant inhibition of PAO1 biofilm | Concentration of first inhibition of rhlA swarming [1]: around 50 μM; Concentration of another activation of rhlA swarming ([1]; after first inhibition): about 160 μM; Reactivation of swarming motility of rhlA mutant [1]: activated the swarming motility of rhlA mutant; Concentration of activity reversal for swarming promotion of rhlA mutant (transition concentration) [1]: ~40 µM; Concentration of activity reversal for swarming promotion of rhlA mutant (transition concentration) ([1]; listed as 5): 40 µM; Concentration at which tendrils were induced in PAO1 [2]: 30 µM; Concentration of activity reversal for swarming inhibition of PAO1 (transition concentration) [2]: ~20 to 30 µM
9 | C=CCCCCCCCCCO[C@@H]1O[C@H](CO)[C@@H](O[C@@H]2O[C@H](CO)[C@@H](O)[C@H](O)[C@H]2O)[C@H](O)[C@H]1O [UDβC (10), undecylenyl-β-cellobioside] | no significant effect on the swarming motility | no significant effect on the swarming motility | no apparent effect on PAO1 swarming | did not show anti-biofilm activities | Inhibition of PAO1 biofilm formation (surface attached) ([3]; listed as 10: UDβC): lesser potency than DSH with completely saturated aliphatic chain
10 | CCCCCCCCCCCO[C@@H]1O[C@H](CO)[C@@H](O[C@@H]2O[C@H](CO)[C@@H](O)[C@H](O)[C@H]2O)[C@H](O)[C@H]1O [UβC (3), undecyl-β-cellobioside] | strong reactivation of the swarming motility in rhlA mutant | causing significant amount of tendril formation | induced tendril formation in the swarming pattern of PAO1 | did not show significant inhibition of PAO1 biofilm | Reactivation of swarming motility of rhlA mutant [1]: activated the swarming motility of rhlA mutant
11 | CCCCCCCCCCCO[C@@H]1O[C@H](CO)[C@@H](O[C@H]2O[C@H](CO)[C@@H](O)[C@H](O)[C@H]2O)[C@H](O)[C@H]1O [UβM, undecyl β-maltoside] | swarming motility with without well-defined tendrils |  |  |  | 
12 | adamantane dodecyl β-maltoside [ADβM] | long, straight and well-defined tendrils |  |  |  | 
